The structures appear in SMILES notation.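 The compound was tested at five concentrations on cells cultured in 96-well plates, with a 48-hour exposure period. Here, GI50 denotes the concentration required for 50% inhibition of growth.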 The source made the active and inactive calls. No stated cut-off is given here; in the data, active = GI50 up to about 1.1 µM and inactive = higher.

These results are taken from ChEMBL document CHEMBL1201862, “PubChem BioAssay data set” (2004).

Among the test systems are NCI-H522; RXF 393; SNB-19; A498; NCI-H460; U-251; SW-620; MCF7; SN12C; HCC 2998; MOLT-4; SF-268; NCI/ADR-RES; OVCAR-3; SF-295; EKVX; 786-0; COLO 205; MDA-MB-231.
What all share (experiment): NCI-60 cell line screen, 48 h

On to `C=CO/N=[N+](\[O-])N(CC)CC`, for which the GI50 in the experiment on NCI-H522, in the experiment on RXF 393, in the experiment on SNB-19, in the experiment on A498, with NCI-H460 and with U-251 was > 100 µM (inactive) throughout. Also, the GI50 in the experiment on SW-620, with MCF7, in the experiment with SN12C, in the experiment with HCC 2998, in the experiment on MOLT-4 and with SF-268 was > 100 µM (inactive) in each case. Besides, the GI50 in the experiment on NCI/ADR-RES, in the experiment on OVCAR-3, with SF-295, with EKVX, in the experiment on 786-0 and with COLO 205 was > 100 µM (inactive) each time. In addition, in the experiment with MDA-MB-231, the GI50 is > 100 µM (inactive).
Regarding `C=C(C)[C@H]1CC[C@@]2(C)C(C1)[C@H](C)CC[C@@H]2O` (some centres not stated), the GI50 with NCI-H522 was 47 µM (inactive); in the experiment with RXF 393 it was > 100 µM (inactive); in the experiment on SNB-19 it was > 100 µM (inactive); in the experiment on A498, > 100 µM (inactive); with NCI-H460, > 100 µM (inactive); with U-251 it was > 100 µM (inactive). The GI50 in the experiment with SW-620 was > 100 µM (inactive); in the experiment on SN12C, > 100 µM (inactive); with HCC 2998, > 100 µM (inactive); in the experiment on MOLT-4 it was 88.3 µM (inactive); in the experiment on SF-268, > 100 µM (inactive); with OVCAR-3 it was > 100 µM (inactive). Also, the GI50 in the experiment on SF-295, in the experiment on EKVX, in the experiment with 786-0 and in the experiment with COLO 205 was > 100 µM (inactive) each time.
With `C=CCNC1=NC(=O)C(CC(=O)Nc2ccc([N+](=O)[O-])cc2[N+](=O)[O-])S1` (configuration not stated), the GI50 with NCI-H522, in the experiment on RXF 393, in the experiment with SNB-19, in the experiment on A498, in the experiment with NCI-H460 and with U-251 was > 100 µM (inactive) each time. The GI50 in the experiment on SW-620, in the experiment with SN12C, in the experiment on HCC 2998, in the experiment with MOLT-4, in the experiment on SF-268 and with OVCAR-3 was > 100 µM (inactive) each time. For the same compound, the GI50 with SF-295, in the experiment with EKVX, in the experiment on 786-0 and in the experiment with COLO 205 was > 100 µM (inactive) in each case.
Consider `CC[C@@]12N=C(N(C)C)C[C@]1(O)ON=C2C`, for which the GI50 in the experiment on NCI-H522, in the experiment with RXF 393, with SNB-19, in the experiment with A498, in the experiment on NCI-H460 and in the experiment with U-251 was > 100 µM (inactive) in each case. For the same compound, the GI50 in the experiment with SW-620, in the experiment with SN12C, in the experiment on HCC 2998, in the experiment with MOLT-4, in the experiment on SF-268 and in the experiment on OVCAR-3 was > 100 µM (inactive) in each case. Moreover, the GI50 with SF-295, in the experiment with EKVX, in the experiment on 786-0 and with COLO 205 was > 100 µM (inactive) in each case.
Turning to `O=C(O)c1ccc(C2=Cc3cc(Cl)ccc3OC2)cc1`, the GI50 in the experiment on NCI-H522, in the experiment on RXF 393, in the experiment on SNB-19, in the experiment on A498, in the experiment on NCI-H460 and in the experiment with U-251 was > 100 µM (inactive) each time. For the same compound, the GI50 with SW-620, with SN12C, in the experiment with HCC 2998, in the experiment with MOLT-4, with SF-268 and in the experiment on OVCAR-3 was > 100 µM (inactive) in each case. Besides, the GI50 in the experiment with SF-295, in the experiment on EKVX, in the experiment on 786-0 and in the experiment with COLO 205 was > 100 µM (inactive) throughout.
On to `CC(C)(C)OC(=O)N1N=NC2C3OC(CC3=O)C21` (configuration not stated), for which the GI50 in the experiment with NCI-H522 is > 100 µM (inactive); in the experiment with RXF 393 it was > 10 µM (inactive); with SNB-19, > 100 µM (inactive); in the experiment on A498, > 100 µM (inactive); with NCI-H460, > 100 µM (inactive); in the experiment with U-251, > 100 µM (inactive). For the same compound, the GI50 with SW-620, in the experiment with SN12C, with HCC 2998, in the experiment on MOLT-4, with SF-268 and with OVCAR-3 was > 100 µM (inactive) in each case. In addition, the GI50 in the experiment on SF-295 was > 10 µM (inactive); in the experiment with EKVX it was > 100 µM (inactive); in the experiment with 786-0, > 100 µM (inactive); in the experiment on COLO 205, > 100 µM (inactive).
On to `Cc1ccccc1-c1c(N)nc(N)nc1C(=O)Nc1nccs1`, for which the GI50 with NCI-H522, with RXF 393, in the experiment on SNB-19, in the experiment on A498, in the experiment on NCI-H460 and with U-251 was > 100 µM (inactive) each time. For the same compound, the GI50 in the experiment with SW-620, in the experiment on SN12C, with HCC 2998, in the experiment on MOLT-4, with SF-268 and in the experiment with OVCAR-3 was > 100 µM (inactive) in each case. The GI50 in the experiment on SF-295, in the experiment on EKVX, in the experiment with 786-0 and in the experiment on COLO 205 was > 100 µM (inactive) throughout.
As to `CN1C(=O)CC2CCC(=O)N2c2cccnc21` (configuration not stated), the GI50 in the experiment on NCI-H522, with SNB-19, in the experiment on NCI-H460, in the experiment on U-251, with SW-620 and with MCF7 was > 100 µM (inactive) in each case. Also, the GI50 with SN12C, in the experiment with HCC 2998, in the experiment with SF-268, in the experiment with NCI/ADR-RES, in the experiment on OVCAR-3 and in the experiment with SF-295 was > 100 µM (inactive) each time. For the same compound, the GI50 in the experiment with EKVX, in the experiment on 786-0, in the experiment on COLO 205 and in the experiment on MDA-MB-231 was > 100 µM (inactive) throughout.
Take `COC(=O)C(C(=O)C(=O)Nc1cccc(C)c1)C1=NC(N)SS1` (configuration not stated): the GI50 in the experiment on NCI-H522, in the experiment on RXF 393, in the experiment with SNB-19, in the experiment on A498, in the experiment on NCI-H460 and with U-251 was > 100 µM (inactive) throughout. Also, the GI50 in the experiment on SW-620, with SN12C, in the experiment on HCC 2998, in the experiment on MOLT-4, in the experiment with SF-268 and in the experiment on OVCAR-3 was > 100 µM (inactive) each time. The GI50 in the experiment on SF-295, in the experiment on EKVX, with 786-0 and in the experiment with COLO 205 was > 100 µM (inactive) each time.
For `CC(C)(C)OC(=O)Nc1nnc(S(N)(=O)=O)s1`, the GI50 with NCI-H522, with RXF 393, with SNB-19, with A498, with NCI-H460 and with U-251 was > 100 µM (inactive) in each case. Moreover, the GI50 in the experiment on SW-620, in the experiment with MCF7, in the experiment on SN12C, in the experiment on HCC 2998, in the experiment with MOLT-4 and with SF-268 was > 100 µM (inactive) throughout. In addition, the GI50 with NCI/ADR-RES, in the experiment with OVCAR-3, in the experiment with SF-295, in the experiment with EKVX, in the experiment on 786-0 and in the experiment with COLO 205 was > 100 µM (inactive) in each case. Further, the GI50 with MDA-MB-231 was > 100 µM (inactive).
Take `COc1cc(/C=C\c2ccc(O)cc2)cc(OC)c1OC`: the GI50 with NCI-H522 is 2.88 µM (inactive); in the experiment on RXF 393, 3.78 µM (inactive); in the experiment with SNB-19, 2.56 µM (inactive); in the experiment with A498 it was 29.4 µM (inactive); in the experiment with NCI-H460, 3.33 µM (inactive); in the experiment with U-251, 3.01 µM (inactive). The GI50 with SW-620 was 2.65 µM (inactive); in the experiment on SN12C it was 4.9 µM (inactive); in the experiment with HCC 2998, > 23.3 µM (inactive); with MOLT-4, 4.24 µM (inactive); in the experiment with SF-268 it was 0.555 µM (active); with OVCAR-3 it was 2.32 µM (inactive). Further, the GI50 in the experiment with SF-295 is 2.47 µM (inactive); in the experiment on EKVX, 9.93 µM (inactive); in the experiment on 786-0, 8.59 µM (inactive); with COLO 205 it was 5.57 µM (inactive).
With `CC12CCC(CC1)C(C)(C)O2` [EUCALYPTOL], the GI50 with NCI-H522 is 10.1 µM (inactive); in the experiment with RXF 393, 13.6 µM (inactive); with A498 it was 0.923 µM (active); with U-251, 29.5 µM (inactive); in the experiment with MCF7, 0.644 µM (active); with SN12C it was 7.08 µM (inactive). In addition, the GI50 in the experiment on HCC 2998 was 26.4 µM (inactive); in the experiment with MOLT-4, 13.7 µM (inactive); in the experiment on SF-268, 42 µM (inactive); in the experiment on NCI/ADR-RES, 45.2 µM (inactive); with OVCAR-3, 36.1 µM (inactive); with SF-295, 21.5 µM (inactive). Moreover, the GI50 in the experiment on EKVX is 38 µM (inactive); in the experiment on 786-0, > 100 µM (inactive); in the experiment on COLO 205, 18.6 µM (inactive).
